Results reported in patent publication US7078499B2, “Nucleotide analogues comprising a reporter moiety and a polymerase enzyme blocking moiety” (GE Healthcare UK Limited, priority 2000, dated 2006).

Biological target: T1, leucine aminopeptidase (Sus scrofa, UniProt P15145)
T1 construct: purchased Sigma L0632
Assay: Enzyme cleavage of 4′ blocking group by leucine aminopeptidase
Assay type: biochemical
Conditions: 0.25 units leucine aminopeptidase, 37° C., 47 mM sodium phosphate pH 7.2, 3.3% methanol
Procedure: 1 mg of 4′-C-(N-Leucylaminomethyl)thymidine (21) is incubated at 37° C. in 47 mM sodium phosphate pH 7.2 with 3.3% methanol and 0.25 units leucine aminopeptidase (Sigma L0632), to a final volume of 200 ul.
The products resulting from a), b) or c) above are analysed by thin layer chromatography using reverse phase plates with 10% acetonitrile in water or by electrospray mass spectrometry. Successful cleavage reactions yield nucleosides running concurrently with 4′-aminomethylthymidine which is used as a standard.

T1 sequence (P15145 whole entry): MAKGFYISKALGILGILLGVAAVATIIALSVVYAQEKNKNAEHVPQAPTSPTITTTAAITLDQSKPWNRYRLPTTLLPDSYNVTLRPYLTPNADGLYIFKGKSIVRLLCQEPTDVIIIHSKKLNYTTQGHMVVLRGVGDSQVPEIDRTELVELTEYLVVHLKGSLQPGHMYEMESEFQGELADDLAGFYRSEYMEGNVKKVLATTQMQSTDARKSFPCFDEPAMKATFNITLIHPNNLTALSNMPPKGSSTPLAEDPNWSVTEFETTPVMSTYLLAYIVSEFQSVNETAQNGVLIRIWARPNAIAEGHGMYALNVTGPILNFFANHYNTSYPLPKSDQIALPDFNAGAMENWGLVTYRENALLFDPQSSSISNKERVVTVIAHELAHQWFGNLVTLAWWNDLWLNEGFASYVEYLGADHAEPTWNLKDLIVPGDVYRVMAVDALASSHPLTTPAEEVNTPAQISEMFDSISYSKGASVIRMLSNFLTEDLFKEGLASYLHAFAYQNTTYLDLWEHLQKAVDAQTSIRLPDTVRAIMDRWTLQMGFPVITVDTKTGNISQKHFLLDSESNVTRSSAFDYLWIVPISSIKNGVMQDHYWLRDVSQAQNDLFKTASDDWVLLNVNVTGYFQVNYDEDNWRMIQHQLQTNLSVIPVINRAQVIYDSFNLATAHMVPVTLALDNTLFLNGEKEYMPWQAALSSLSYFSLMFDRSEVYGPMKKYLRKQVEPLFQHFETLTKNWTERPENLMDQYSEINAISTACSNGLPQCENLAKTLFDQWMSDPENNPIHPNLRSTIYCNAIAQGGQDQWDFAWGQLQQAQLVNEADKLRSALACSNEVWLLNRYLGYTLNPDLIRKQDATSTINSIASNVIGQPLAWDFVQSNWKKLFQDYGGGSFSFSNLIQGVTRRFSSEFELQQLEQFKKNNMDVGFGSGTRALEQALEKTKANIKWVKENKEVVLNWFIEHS

Structure (SMILES): Cc1cn([C@H]2C[C@H](O)[C@](CO)(CNC(=O)[C@@H](N)CC(C)C)O2)c(=O)[nH]c1=O [compound (21), 4′-C-(N-Leucylaminomethyl)thymidine]
- cleavage of 4′ blocking group (mass spectrometric detection of daughter ion mass 242): enzyme induced cleavage of the amino acid
